Measurements: patent publication US11286263B2, “Macrocyclic fluorine substituted indole derivatives” (The Broad Institute, Inc., priority 2017, dated 2022)
Counter-ions that a name gives are not always drawn. Like-named read-outs stand apart in the source and are kept apart here.

How the values were obtained:
[1] = test system: SUDHL5
[2] = test system: SUDHL10
[3] = test system: SUDHL10; experiment: Antiproliferation assay SUDHL10 (Assay 7); format: cell-based; settings: Homo sapiens, SU-DHL10; SUDHL10 cells, 72 h, CellTiter-Glo; median; read-out: IC50 Antiproli SUDHL10 [M] (median)
Experimental: (§1) Assessment of the Anti-Proliferative Effect of Compounds in Different Cell Lines
(§2) The impact of compounds on the proliferation of different cell lines was assessed using the CellTiter-Glo® Luminescent Cell Viability reagent from Promega (G7573).
(§3) In parallel, cells were plated in a reference (day 0) plate for time zero determination.
(§4) Rim wells were excluded. The cells were incubated for 72 h hours in a humidified incubator at 37° C. The day 0 plate was measured by adding 30 μL/well of CTG solution (CellTiter-Glo® Luminescent Cell Viability reagent, Promega G7573) to time zero wells in the reference plate followed by a 10 minutes incubation and luminescence reading at 0.1 ms. using the PHERAstar FS microplate reader (BMG Labtech).
(§5) After 72 h incubation, the treated plates were measured in the same way as the day 0 plate mentioned above.

[4] = test system: A2058; experiment: Antiproliferation assay A2058 (Assay 7); format: cell-based; settings: Homo sapiens; A2058 cells, 72 h, CellTiter-Glo; single determinations; read-out: IC50 Antiproli A2058
Experimental: as §1, §2, §3, §4, §5

[5] = test system: NCI-H23; experiment: Antiproliferation assay NCI-H23 (Assay 7); format: cell-based; settings: NCI-H23 cells, CellTiter-Glo, single determinations, read-out: IC50 Antiproli NCI-H23
Experimental: as §1, §2, §3, §4, §5

[6] = test system: SK-BR-3; experiment: Antiproliferation assay SK-BR-3 (Assay 7); format: cell-based; settings: SK-BR-3 cells, CellTiter-Glo, single determinations, read-out: IC50 Antiproli SK-BR-3
Experimental: as §1, §2, §3, §4, §5

[7] = test system: BxPC-3; experiment: Antiproliferation assay BxPC-3 (Assay 7); format: cell-based; settings: Homo sapiens; BxPC-3 cells, 72 h, CellTiter-Glo; single determinations; read-out: IC50 Antiproli BxPC-3
Experimental: as §1, §2, §3, §4, §5

(rac)-1-(3-((2,3-dihydro-1H-inden-4-yl)oxy)propyl)-12-ethyl-13-fluoro-11-methyl-4,5,6,7,9,11-hexahydropyrazolo[4′,3′:9,10][1]oxa[6]azacycloundecino[8,7,6-hi]indole-2-carboxylic acid [Example 30]
IC50 [1]: 1100 nM
IC50 [2]: 1300 nM

Cc1nn(C)c2c1-c1c(F)ccc3c(CCCOc4cccc5cc(F)ccc45)c(C(=O)O)n(c13)CCCCOC2 (racemic) [Example 32, (rac)-13-fluoro-1-(3-((6-fluoronaphthalen-1-yl)oxy)propyl)-10,12-dimethyl-4,5,6,7,9,10-hexahydropyrazolo[4′,3′:9,10][1]oxa[6]azacycloundecino[8,7,6-hi]indole-2-carboxylic acid]
IC50 [3]: 1.5e-06 M

Cc1c2c(nn1C)COCCCCn1c(C(=O)O)c(CCCOc3cccc4c3CCC4)c3ccc(F)c-2c31 (racemic) [Example 19, (rac)-1-(3-((2,3-dihydro-1H-inden-4-yl)oxy)propyl)-13-fluoro-11,12-dimethyl-4,5,6,7,9,11-hexahydropyrazolo[4′,3′:9,10][1]oxa[6]azacycloundecino[8,7,6-hi]indole-2-carboxylic acid]
IC50 [3]: 1.5e-06 M

Cc1c2c(nn1C)COCCCCn1c(C(=O)O)c(CCCOc3cccc4ccccc34)c3ccc(F)c-2c31 (racemic) [Example 2, (rac)-4-fluoro-2,3-dimethyl-7-[3-(naphthalen-1-yloxy)propyl]-2,10,11,12,13,15-hexahydro-pyrazolo[4′,3′:9,10][1,6]oxazacycloundecino[8,7,6-hi]indole-8-carboxylic acid]
IC50 [4]: > 33 µM
IC50 ([5]; Homo sapiens, NCI-H23, 72 h): 7.56 µM
IC50 ([5]; 72 h, listed as 02): 9.56 µM
IC50 ([6]; Homo sapiens, SK-BR-3, 72 h): 7.07 µM
IC50 ([6]; 72 h, listed as 02): 6.85 µM

CCc1c2c(nn1C)COCCCCn1c(C(=O)O)c(CCCOc3cccc4cc(F)ccc34)c3ccc(F)c-2c31 (single isomer, unassigned; enantiomer 1) [Example 22, 3-ethyl-4-fluoro-7-{3-[(6-fluoronaphthalen-1-yl)oxy]propyl}-2-methyl-2,10,11,12,13,15-hexahydropyrazolo[4′,3′:9,10][1,6]oxazacycloundecino[8,7,6-hi]indole-8-carboxylic acid-N-ethylethanamine salt (enantiomer 1)]
IC50 [7]: 23.5 µM

Cc1c2c(nn1C)COCCCCn1c(C(=O)O)c(CCCOc3cccc4ccccc34)c3ccc(F)c-2c31 (single isomer, unassigned; enantiomer 1) [Example 3, 4-fluoro-2,3-dimethyl-7-[3-(naphthalen-1-yloxy)propyl]-2,10,11,12,13,15-hexahydropyrazolo-[4′,3′:9,10][1,6]oxazacycloundecino[8,7,6-hi]indole-8-carboxylic acid-N-ethylethanamine salt (enantiomer 1)]
IC50 [4]: > 33 µM
IC50 ([5]; Homo sapiens, NCI-H23, 72 h): 6.94 µM
IC50 ([6]; Homo sapiens, SK-BR-3, 72 h): 9.5 µM

Cc1c2c(nn1C)COCCCCn1c(C(=O)O)c(CCCOc3cccc4c3CCCC4)c3ccc(F)c-2c31 (racemic) [Example 18, (rac)-13-fluoro-11,12-dimethyl-1-(3-((5,6,7,8-tetrahydronaphthalen-1-yl)oxy)propyl)-4,5,6,7,9,11-hexahydropyrazolo[4′,3′:9,10][1]oxa[6]azacycloundecino[8,7,6-hi]indole-2-carboxylic acid]
IC50 [3]: 1.5e-06 M
